The record followed here is PubChem BioAssay (NCI).

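Compound exposure: 48 hours, 5 concentrations, 96-well plates. GI50 = concentration required for 50% inhibition of growth. TGI is the concentration that stops growth completely.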 Where only a bound is given, the exact number is not on record here.

Some test systems named below: UACC-257 melanoma; SF-539 CNS; SK-MEL-5 melanoma; OVCAR-4 ovarian; EKVX NSCLC; LXFL 529 NSCLC; SNB-78 CNS; SW-620 colon; SR leukemia; HS 578T breast.
Holding throughout (test): NCI anticancer screen, dose series, 48 h

As for `COc1cc2ccc(CC(N)=O)cc2cc1OC`, the TGI in the assay on UACC-257 melanoma, in the assay on SF-539 CNS, in the assay on SK-MEL-5 melanoma, with OVCAR-4 ovarian, in the assay with EKVX NSCLC and with LXFL 529 NSCLC was more than 100 µM each time. For the same compound, the TGI in the assay with SNB-78 CNS and with SW-620 colon was more than 100 µM in each case.
Turning to `Cc1cc2c(=O)cc(-c3ccc(F)cc3)oc2c(C(=O)O)c1C`, the TGI in the assay with UACC-257 melanoma, with SF-539 CNS, with SK-MEL-5 melanoma, in the assay on OVCAR-4 ovarian, in the assay with EKVX NSCLC and in the assay with LXFL 529 NSCLC was more than 100 µM throughout. Besides, the TGI in the assay with SNB-78 CNS and in the assay with SW-620 colon was more than 100 µM in each case.
For the compound `O=C(Sc1sc(=S)sc1SC(=O)c1ccccc1)c1ccccc1`, the TGI in the assay on UACC-257 melanoma, in the assay on SF-539 CNS, with SK-MEL-5 melanoma, with OVCAR-4 ovarian, in the assay on EKVX NSCLC and in the assay with LXFL 529 NSCLC was more than 100 µM each time. The TGI with SNB-78 CNS and with SW-620 colon was more than 100 µM in each case.
Take `CCOP(=O)(CC(=O)C1=C(O)C(CCCCNC(=O)OC(C)(C)C)N(Cc2ccccc2)C1=O)OCC` (stereo not given): the TGI in the assay with UACC-257 melanoma, with SF-539 CNS, with SK-MEL-5 melanoma, in the assay on OVCAR-4 ovarian, in the assay on SR leukemia and with EKVX NSCLC was more than 100 µM throughout. For the same compound, in the assay on LXFL 529 NSCLC, the TGI was more than 100 µM.
Regarding `CCCCCCCCCCCCCCNCC(OCC)OCC`, the TGI came to 31.2 µM in the assay with UACC-257 melanoma; 29.7 µM in the assay on SF-539 CNS; 27.9 µM in the assay with SK-MEL-5 melanoma; 28.6 µM with OVCAR-4 ovarian; 34.7 µM in the assay with EKVX NSCLC; 29 µM in the assay on LXFL 529 NSCLC. The TGI is 33.5 µM with SNB-78 CNS and 31.9 µM in the assay with SW-620 colon.
In the case of `COC(=O)C(=O)C(CC(=O)Nc1cccc(C(F)(F)F)c1)C(=O)OC` (stereo not given), the TGI in the assay on SF-539 CNS, in the assay with SK-MEL-5 melanoma, in the assay with OVCAR-4 ovarian, in the assay with EKVX NSCLC, in the assay with LXFL 529 NSCLC and in the assay with SNB-78 CNS was more than 100 µM in each case. For the same compound, the TGI with SW-620 colon is more than 100 µM.
In the case of `O=C(NC(=O)c1cc2cc(Br)cc(Br)c2oc1=O)Oc1ccccc1`, the TGI with UACC-257 melanoma, in the assay on SF-539 CNS, with SK-MEL-5 melanoma, in the assay with OVCAR-4 ovarian, in the assay with EKVX NSCLC and in the assay on LXFL 529 NSCLC was more than 100 µM each time. The TGI in the assay on SNB-78 CNS and in the assay with SW-620 colon was more than 100 µM throughout.
Regarding `COc1ccc(Oc2cc(NCCC(F)(F)F)c3ncc(-c4ccc(C(=O)NC5CC5)c(C)c4)n3n2)c(F)c1F`, the GI50 in the assay on UACC-257 melanoma was 9.26 µM; in the assay with SF-539 CNS, 0.758 µM; in the assay on SK-MEL-5 melanoma it was 4.75 µM; in the assay on OVCAR-4 ovarian, 3.85 µM; in the assay on SR leukemia, 0.224 µM; in the assay with EKVX NSCLC it was 2.53 µM. For the same compound, the GI50 is 0.125 µM in the assay on SW-620 colon and 1 µM in the assay on HS 578T breast. Moreover, the TGI with UACC-257 melanoma is 59.5 µM; in the assay on SF-539 CNS, 21.9 µM; with SK-MEL-5 melanoma, more than 100 µM; in the assay on OVCAR-4 ovarian, more than 87.2 µM; with SR leukemia, 64.3 µM; in the assay on EKVX NSCLC it was more than 100 µM. Moreover, the TGI in the assay with SW-620 colon is more than 100 µM; with HS 578T breast it was 50.6 µM.
Regarding `C#C/C=C/CC1OC(C(Br)CC)CC(Br)C2CC1O2` (stereo not given), the TGI with UACC-257 melanoma, with SF-539 CNS, in the assay on SK-MEL-5 melanoma, in the assay with OVCAR-4 ovarian, in the assay on SR leukemia and in the assay on EKVX NSCLC was more than 100 µM in each case. The TGI in the assay on SW-620 colon and in the assay on HS 578T breast was more than 100 µM in each case.
Take `CNC(=O)c1cc2c(Oc3ccc(NC(=S)NC(=O)Cc4ccccc4)cc3F)ccnc2cc1OC`: the GI50 in the assay with UACC-257 melanoma is 9.5 µM; in the assay on SF-539 CNS, 0.549 µM; with SK-MEL-5 melanoma it was more than 20.6 µM; in the assay on OVCAR-4 ovarian, 5.44 µM; in the assay with SR leukemia, 5.78 µM; in the assay on EKVX NSCLC it was more than 100 µM. Also, the GI50 was more than 100 µM with SW-620 colon and 1.29 µM in the assay with HS 578T breast. Further, the TGI in the assay with UACC-257 melanoma was more than 100 µM; in the assay with SF-539 CNS, more than 30.3 µM; in the assay with SK-MEL-5 melanoma it was more than 100 µM; in the assay with OVCAR-4 ovarian, more than 100 µM; in the assay on SR leukemia it was more than 100 µM; in the assay on EKVX NSCLC it was more than 100 µM. The TGI was more than 100 µM in the assay on SW-620 colon and 8.05 µM in the assay on HS 578T breast.
Regarding `Cc1ncc(-c2ccnc(Nc3ccc(S(C)(=O)=O)cc3)n2)n1C(C)C`, the GI50 is 1.94 µM in the assay on UACC-257 melanoma; 0.56 µM in the assay with SF-539 CNS; 0.811 µM in the assay with SK-MEL-5 melanoma; 1.87 µM in the assay on OVCAR-4 ovarian; 0.222 µM with SR leukemia; 1.56 µM in the assay on EKVX NSCLC. In addition, the results for the GI50 in the assay with SW-620 colon and in the assay on HS 578T breast were 1.02 µM and 0.977 µM, respectively. The TGI with UACC-257 melanoma is 5.62 µM; with SF-539 CNS, 2.71 µM; in the assay on SK-MEL-5 melanoma it was 3.29 µM; in the assay on OVCAR-4 ovarian, more than 8.73 µM; in the assay with SR leukemia, 2.94 µM; with EKVX NSCLC, 5.54 µM. In addition, the TGI was more than 10 µM in the assay with SW-620 colon and 5.33 µM in the assay with HS 578T breast.
